According to PubChem BioAssay AID248 (DTP/NCI, 2004):
Inconclusive results and toxic doses are left out.

Test system: L1210 leukemia ip in BDF1 mice, survival T/C
Test: NCI In Vivo Anticancer Drug Screen. Data for tumor model L1210 Leukemia (intraperitoneal) in B6D2F1 (BDF1) mice
Settings: endpoint: mean survival time, higher = longer survival
Summary of the method: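 Survival endpoint. Drug-treated group vs vehicle group, expressed as T divided by C. Tumor passaged by transplantation.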

[1] = dose: 100.0 mg/kg/injection, schedule: Q01DX001 (ip), vehicle: saline with Tween-80
[2] = dose: 200.0 mg/kg/injection, schedule: Q01DX001 (ip), vehicle: saline with Tween-80
[3] = dose: 100.0 mg/kg/injection, schedule: Q04DX003 (ip), vehicle: saline with Tween-80
[4] = dose: 200.0 mg/kg/injection, schedule: Q04DX003 (ip), vehicle: saline with Tween-80
[5] = dose: 400.0 mg/kg/injection, schedule: Q04DX003 (ip), vehicle: saline with Tween-80
[6] = dose: 75.0 mg/kg/injection, schedule: Q01DX001 (ip), vehicle: carboxymethylcellulose (CMC)

In the case of CC[n+]1ccc(Nc2ccc(NC(=O)c3ccc(Nc4cc[n+](CC)c5ccc([N+](=O)[O-])cc45)cc3)cc2)cc1, the T/C (dose: 4.13 mg/kg/injection, schedule: Q04DX003 (ip), vehicle: saline sonified) is reported as 114 % of control, the T/C (dose: 4.5 mg/kg/injection, schedule: Q01DX009 (ip), vehicle: Klucel (hydroxypropylcellulose) (HPC)) is reported as 117 % of control and the T/C (dose: 6.25 mg/kg/injection, schedule: Q04DX003 (ip), vehicle: Klucel (hydroxypropylcellulose) (HPC)) is reported as 108 % of control. For the same molecule, the T/C (dose: 6.25 mg/kg/injection, schedule: Q04DX003 (ip), vehicle: saline sonified) was 117 % of control, the T/C (dose: 9.38 mg/kg/injection, schedule: Q04DX003 (ip), vehicle: saline sonified) was 115 % of control and the T/C (dose: 10.44 mg/kg/injection, schedule: Q01DX009 (ip), vehicle: saline with Tween-80) was 117 % of control. The T/C (dose: 11.0 mg/kg/injection, schedule: Q01DX009 (ip), vehicle: saline) was 115 % of control, the T/C (dose: 12.5 mg/kg/injection, schedule: Q01DX001 (ip), vehicle: Klucel (hydroxypropylcellulose) (HPC)) was 100 % of control and the T/C (dose: 12.5 mg/kg/injection, schedule: Q04DX003 (ip), vehicle: Klucel (hydroxypropylcellulose) (HPC)) was 112 % of control. The T/C (dose: 16.5 mg/kg/injection, schedule: Q01DX009 (ip), vehicle: Klucel (hydroxypropylcellulose) (HPC)) was 175 % of control, the T/C (dose: 25.0 mg/kg/injection, schedule: Q01DX001 (ip), vehicle: Klucel (hydroxypropylcellulose) (HPC)) was 102 % of control and the T/C (dose: 25.0 mg/kg/injection, schedule: Q01DX009 (ip), vehicle: Klucel (hydroxypropylcellulose) (HPC)) was 160 % of control. The T/C (dose: 25.0 mg/kg/injection, schedule: Q01DX009 (ip), vehicle: saline sonified) was 230 % of control, the T/C (dose: 25.0 mg/kg/injection, schedule: Q01DX009 (ip), vehicle: saline) was 160 % of control and the T/C (dose: 25.0 mg/kg/injection, schedule: Q04DX003 (ip), vehicle: Klucel (hydroxypropylcellulose) (HPC)) was 122 % of control. The T/C (dose: 37.5 mg/kg/injection, schedule: Q01DX009 (ip), vehicle: saline) was 184 % of control.
CCOc1ccccc1N1C(=O)CSC1=S was tested, and the T/C (dose: 200.0 mg/kg/injection, schedule: Q04DX002 (ip), vehicle: other) was 117 % of control and the T/C (dose: 400.0 mg/kg/injection, schedule: Q04DX002 (ip), vehicle: other) was 95 % of control.
For CCCCCCCCCCCCCCCCSC(=N)N, the T/C (dose: 100.0 mg/kg/injection, schedule: Q04DX003 (ip), vehicle: carboxymethylcellulose (CMC)) was 91 % of control and the T/C (dose: 200.0 mg/kg/injection, schedule: Q04DX003 (ip), vehicle: carboxymethylcellulose (CMC)) was 93 % of control.
For CCC(C(=O)Cl)c1ccc(-c2ccccc2)cc1 (configuration not stated), the T/C (dose: 50.0 mg/kg/injection, schedule: Q01DX001 (ip), vehicle: saline with Tween-80) was 96 % of control, the T/C [1] was 96 % of control and the T/C [2] was 96 % of control.
For COc1ccc(NC(=O)Nc2ccc(C)cc2C)cc1, the T/C [3] was 93 % of control, the T/C [4] was 90 % of control and the T/C [5] was 95 % of control.
Cc1cc([N+](=O)[O-])c2ccccc2c1N(CC(=O)O)S(=O)(=O)c1ccccc1 was tested, and the T/C (dose: 100.0 mg/kg/injection, schedule: Q01DX009 (ip), vehicle: saline with Tween-80) was 93 % of control, the T/C [3] was 90 % of control and the T/C (dose: 200.0 mg/kg/injection, schedule: Q01DX009 (ip), vehicle: saline with Tween-80) was 99 % of control. For the same molecule, the T/C [4] was 97 % of control, the T/C (dose: 400.0 mg/kg/injection, schedule: Q01DX009 (ip), vehicle: saline with Tween-80) was 104 % of control and the T/C [5] was 89 % of control.
For CCCCCCCCCCC/C=N\N(C)C, the T/C (dose: 100.0 mg/kg/injection, schedule: Q04DX002 (ip), vehicle: Klucel (hydroxypropylcellulose) (HPC)) was 96 % of control, the T/C (dose: 200.0 mg/kg/injection, schedule: Q04DX002 (ip), vehicle: Klucel (hydroxypropylcellulose) (HPC)) was 92 % of control and the T/C (dose: 400.0 mg/kg/injection, schedule: Q04DX002 (ip), vehicle: Klucel (hydroxypropylcellulose) (HPC)) was 103 % of control.
COc1cc2c(cc1OC)/C(=N\O)CCCC2 was tested, and the T/C (dose: 100.0 mg/kg/injection, schedule: Q01DX009 (ip), vehicle: saline sonified) was 97 % of control, the T/C (dose: 100.0 mg/kg/injection, schedule: Q04DX003 (ip), vehicle: Klucel (hydroxypropylcellulose) (HPC)) was 96 % of control and the T/C (dose: 200.0 mg/kg/injection, schedule: Q01DX009 (ip), vehicle: saline sonified) was 94 % of control. For the same molecule, the T/C (dose: 200.0 mg/kg/injection, schedule: Q04DX003 (ip), vehicle: Klucel (hydroxypropylcellulose) (HPC)) was 94 % of control, the T/C (dose: 400.0 mg/kg/injection, schedule: Q01DX009 (ip), vehicle: saline sonified) was 100 % of control and the T/C (dose: 400.0 mg/kg/injection, schedule: Q04DX003 (ip), vehicle: Klucel (hydroxypropylcellulose) (HPC)) was 97 % of control.
In the case of C1CC2CCCC(C1)S2, the T/C (dose: 75.0 mg/kg/injection, schedule: Q01DX001 (ip), vehicle: saline) is reported as 102 % of control, the T/C (dose: 150.0 mg/kg/injection, schedule: Q01DX001 (ip), vehicle: saline) is reported as 100 % of control and the T/C (dose: 300.0 mg/kg/injection, schedule: Q01DX001 (ip), vehicle: saline) is reported as 96 % of control.
C=CC[N+](C)(CC=C)CC[N+](C)(CC=C)CC=C was tested, and the T/C (dose: 50.0 mg/kg/injection, schedule: Q01DX009 (ip), vehicle: water) was 93 % of control, the T/C (dose: 100.0 mg/kg/injection, schedule: Q01DX009 (ip), vehicle: water) was 95 % of control and the T/C (dose: 100.0 mg/kg/injection, schedule: Q04DX003 (ip), vehicle: water) was 94 % of control. For the same molecule, the T/C (dose: 200.0 mg/kg/injection, schedule: Q04DX003 (ip), vehicle: water) was 96 % of control.
With CCCC(C)c1cc([N+](=O)[O-])cc([N+](=O)[O-])c1O (configuration not stated) the T/C (dose: 3.12 mg/kg/injection, schedule: Q01DX009 (ip), vehicle: saline with Tween-80) was 107 % of control, the T/C (dose: 6.25 mg/kg/injection, schedule: Q01DX009 (ip), vehicle: saline with Tween-80) was 98 % of control and the T/C (dose: 12.5 mg/kg/injection, schedule: Q01DX009 (ip), vehicle: saline with Tween-80) was 91 % of control.
With COC(=O)c1cc(OC)c(OC)c(OC)c1 the T/C [1] was 100 % of control, the T/C [2] was 98 % of control and the T/C (dose: 400.0 mg/kg/injection, schedule: Q01DX001 (ip), vehicle: saline with Tween-80) was 96 % of control.
In the case of CC(=O)OC1CCC2(C)C(CCC3C2CCC2(C)C3CCC2C(C)(C)O)C1 (configuration not stated), the T/C (dose: 100.0 mg/kg/injection, schedule: Q04DX002 (ip), vehicle: DMSO) is reported as 99 % of control, the T/C (dose: 200.0 mg/kg/injection, schedule: Q04DX002 (ip), vehicle: DMSO) is reported as 92 % of control and the T/C (dose: 400.0 mg/kg/injection, schedule: Q04DX002 (ip), vehicle: DMSO) is reported as 92 % of control.
In the case of CN(c1ccccc1)P(=O)(N1CC1)N1CC1, the T/C (dose: 4.4 mg/kg/injection, schedule: Q01DX009 (ip), vehicle: carboxymethylcellulose (CMC)) is reported as 117 % of control, the T/C (dose: 6.2 mg/kg/injection, schedule: Q01DX001 (ip), vehicle: carboxymethylcellulose (CMC)) is reported as 111 % of control and the T/C (dose: 6.6 mg/kg/injection, schedule: Q01DX009 (ip), vehicle: carboxymethylcellulose (CMC)) is reported as 152 % of control. The T/C (dose: 12.5 mg/kg/injection, schedule: Q01DX001 (ip), vehicle: carboxymethylcellulose (CMC)) was 104 % of control, the T/C (dose: 15.0 mg/kg/injection, schedule: Q01DX009 (ip), vehicle: carboxymethylcellulose (CMC)) was 105 % of control and the T/C (dose: 22.0 mg/kg/injection, schedule: Q01DX001 (ip), vehicle: carboxymethylcellulose (CMC)) was 123 % of control. For the same molecule, the T/C (dose: 33.0 mg/kg/injection, schedule: Q01DX001 (ip), vehicle: carboxymethylcellulose (CMC)) was 159 % of control, the T/C (dose: 50.0 mg/kg/injection, schedule: Q01DX001 (ip), vehicle: carboxymethylcellulose (CMC)) was 115 % of control and the T/C [6] was 102 % of control.
O=C(O)c1cccc(F)c1CBr was tested, and the T/C [6] was 104 % of control.
With O=C(NCCc1nc(C(=O)O)cs1)c1ccccc1 the T/C (dose: 100.0 mg/kg/injection, schedule: Q01DX001 (ip), vehicle: other) was 98 % of control, the T/C (dose: 100.0 mg/kg/injection, schedule: Q01DX009 (ip), vehicle: gum acacia) was 99 % of control and the T/C (dose: 100.0 mg/kg/injection, schedule: Q04DX003 (ip), vehicle: gum acacia) was 103 % of control. For the same molecule, the T/C (dose: 200.0 mg/kg/injection, schedule: Q01DX001 (ip), vehicle: other) was 101 % of control, the T/C (dose: 200.0 mg/kg/injection, schedule: Q04DX003 (ip), vehicle: gum acacia) was 98 % of control and the T/C (dose: 400.0 mg/kg/injection, schedule: Q01DX001 (ip), vehicle: other) was 102 % of control. For the same molecule, the T/C (dose: 400.0 mg/kg/injection, schedule: Q04DX003 (ip), vehicle: gum acacia) was 97 % of control.
For O=S1(=O)CN2C=CC=CC2=N1, the T/C (dose: 100.0 mg/kg/injection, schedule: Q04DX002 (ip), vehicle: saline with Tween-80) was 113 % of control, the T/C (dose: 200.0 mg/kg/injection, schedule: Q04DX002 (ip), vehicle: saline with Tween-80) was 91 % of control and the T/C (dose: 400.0 mg/kg/injection, schedule: Q04DX002 (ip), vehicle: saline with Tween-80) was 109 % of control.
